Reference: the NIST ThermoML archive (doi:10.1016/j.jct.2012.10.023)
Numbers after ± are expanded uncertainties.

Experiments:
[1] = 101.33 kPa, Liquid; for speed of sound: Sing-around technique in a fixed-path interferometer; for mass density: Vibrating tube method
[2] = xn = mol fraction of the nth substance listed; settings: 101 kPa, Liquid; for speed of sound: Sing-around technique in a fixed-path interferometer; for mass density: Vibrating tube method

Cc1ccccc1C [1,2-dimethylbenzene]
[1]
Settings	mass density [kg/m3]	speed of sound [m/s]
298.15 K	875.363 ± 0.12	1348.2 ± 0.92
308.15 K	866.507 ± 0.13	1308.2 ± 0.91

Cc1ccccc1C [1,2-dimethylbenzene] + CCCCCCCCCO
[2], x1 = 1
Settings	mass density [kg/m3]	speed of sound [m/s]
298.15 K	875.363 ± 0.12	1348.2 ± 0.92
308.15 K	866.507 ± 0.12	1308.2 ± 0.91

Cc1cc(C)cc(C)c1 [1,3,5-trimethylbenzene]
[1]
Settings	mass density [kg/m3]	speed of sound [m/s]
298.15 K	860.862 ± 0.16	1336 ± 1
308.15 K	852.659 ± 0.16	1296.3 ± 0.98

Cc1cc(C)cc(C)c1 [1,3,5-trimethylbenzene] + CCCCCCCCCO
[2], x1 = 1
Settings	mass density [kg/m3]	speed of sound [m/s]
298.15 K	860.862 ± 0.16	1336 ± 1
308.15 K	852.659 ± 0.16	1296.3 ± 0.98

Cc1cccc(C)c1 [1,3-dimethylbenzene]
[1]
Settings	mass density [kg/m3]	speed of sound [m/s]
298.15 K	859.867 ± 0.13	1320.1 ± 0.91
308.15 K	851.236 ± 0.13	1279.1 ± 0.89

Cc1cccc(C)c1 [1,3-dimethylbenzene] + CCCCCCCCCO
[2], x1 = 1
Settings	mass density [kg/m3]	speed of sound [m/s]
298.15 K	859.867 ± 0.13	1320.1 ± 0.91
308.15 K	851.236 ± 0.13	1279.1 ± 0.89

Cc1ccc(C)cc1 [1,4-dimethylbenzene]
[1]
Settings	mass density [kg/m3]	speed of sound [m/s]
298.15 K	856.609 ± 0.3	1309.5 ± 1.3
308.15 K	847.881 ± 0.3	1268.6 ± 1.3

Cc1ccc(C)cc1 [1,4-dimethylbenzene] + CCCCCCCCCO
[2], x1 = 1
Settings	mass density [kg/m3]	speed of sound [m/s]
298.15 K	856.609 ± 0.3	1309.5 ± 1.3
308.15 K	847.881 ± 0.3	1268.6 ± 1.3

CCc1ccccc1 [ethylbenzene]
[1]
Settings	mass density [kg/m3]	speed of sound [m/s]
298.15 K	862.433 ± 0.13	1318.6 ± 0.91
308.15 K	853.607 ± 0.13	1277.5 ± 0.89

CCc1ccccc1 [ethylbenzene] + CCCCCCCCCO
[2], x1 = 1
Settings	mass density [kg/m3]	speed of sound [m/s]
298.15 K	862.433 ± 0.13	1318.6 ± 0.91
308.15 K	853.607 ± 0.13	1277.5 ± 0.89

CCCCCCCCCO [nonan-1-ol]
[1]
Settings	mass density [kg/m3]	speed of sound [m/s]
298.15 K	824.271 ± 0.17	1363.1 ± 1
308.15 K	817.362 ± 0.18	1330.4 ± 1

CCCCCCCCCO [nonan-1-ol] + CCc1ccccc1
[2]
Settings	mass density, 298.15 K [kg/m3]	mass density, 308.15 K [kg/m3]	speed of sound, 298.15 K [m/s]	speed of sound, 308.15 K [m/s]
x2 = 0	824.271 ± 0.17	817.362 ± 0.17	1363.1 ± 1	1330.4 ± 1
x2 = 0.0611	825.837 ± 0.17	818.832 ± 0.17	1359.7 ± 1	1326.2 ± 0.99
x2 = 0.1285	827.606 ± 0.17	820.495 ± 0.17	1355.8 ± 1	1321.2 ± 0.98
x2 = 0.1791	828.979 ± 0.16	821.784 ± 0.17	1352.3 ± 0.99	1317.2 ± 0.98
x2 = 0.2466	830.861 ± 0.16	823.552 ± 0.16	1347.6 ± 0.98	1312 ± 0.97
x2 = 0.3151	832.863 ± 0.16	825.431 ± 0.16	1342.6 ± 0.98	1306.5 ± 0.96
x2 = 0.3717	834.594 ± 0.16	827.054 ± 0.16	1338.4 ± 0.97	1301.9 ± 0.95
x2 = 0.4254	836.312 ± 0.15	828.667 ± 0.16	1334.5 ± 0.96	1297.6 ± 0.95
x2 = 0.5007	838.858 ± 0.15	831.059 ± 0.15	1329.2 ± 0.95	1291.8 ± 0.94
x2 = 0.5756	841.598 ± 0.15	833.621 ± 0.15	1324.6 ± 0.94	1286.4 ± 0.93
x2 = 0.6411	844.187 ± 0.14	836.032 ± 0.15	1321 ± 0.94	1282.3 ± 0.92
x2 = 0.7122	847.192 ± 0.14	838.876 ± 0.14	1318 ± 0.93	1278.8 ± 0.91
x2 = 0.7798	850.293 ± 0.14	841.821 ± 0.14	1316 ± 0.92	1276.2 ± 0.91
x2 = 0.8557	854.062 ± 0.13	845.455 ± 0.14	1315.2 ± 0.92	1275 ± 0.9
x2 = 0.9341	858.405 ± 0.13	849.669 ± 0.13	1316.3 ± 0.91	1274.9 ± 0.89

CCCCCCCCCO [nonan-1-ol] + Cc1cc(C)cc(C)c1
[2]
Settings	mass density, 298.15 K [kg/m3]	mass density, 308.15 K [kg/m3]	speed of sound, 298.15 K [m/s]	speed of sound, 308.15 K [m/s]
x2 = 0	824.271 ± 0.17	817.362 ± 0.17	1363.1 ± 1	1330.4 ± 1
x2 = 0.0696	826.211 ± 0.17	819.181 ± 0.17	1360.9 ± 1	1327.3 ± 1
x2 = 0.1267	827.826 ± 0.17	820.708 ± 0.17	1358.8 ± 1	1324.6 ± 1
x2 = 0.195	829.792 ± 0.17	822.576 ± 0.17	1356 ± 1	1321 ± 1
x2 = 0.2375	831.043 ± 0.17	823.768 ± 0.17	1354 ± 1	1318.6 ± 0.99
x2 = 0.3044	833.053 ± 0.17	825.691 ± 0.17	1350.8 ± 1	1314.8 ± 0.99
x2 = 0.362	834.839 ± 0.17	827.405 ± 0.17	1347.8 ± 1	1311.4 ± 0.99
x2 = 0.4358	837.211 ± 0.17	829.683 ± 0.17	1344.1 ± 1	1307.4 ± 0.99
x2 = 0.5112	839.754 ± 0.17	832.121 ± 0.17	1340.5 ± 1	1303.3 ± 0.99
x2 = 0.5777	842.112 ± 0.17	834.381 ± 0.17	1337.5 ± 1	1300 ± 0.99
x2 = 0.6422	844.512 ± 0.16	836.681 ± 0.17	1335.2 ± 1	1297.5 ± 0.99
x2 = 0.7091	847.143 ± 0.16	839.209 ± 0.17	1333.3 ± 1	1295.2 ± 0.98
x2 = 0.7788	850.052 ± 0.16	841.998 ± 0.17	1332.4 ± 1	1293.7 ± 0.98
x2 = 0.8571	853.546 ± 0.16	845.418 ± 0.16	1332.4 ± 1	1293.1 ± 0.98
x2 = 0.9234	856.701 ± 0.16	848.558 ± 0.16	1333.4 ± 1	1293.8 ± 0.98
